Values joined by “and” are separate entries in the source; they are usually repeats but may differ in a detail not shown here. Equal entries are not always repeated. Where two headings read alike, the source gives them in different places.
How the values were obtained:
[1] = target: T1, CXCR3 (Homo sapiens, UniProt P49682); experiment: [35S]GTPγS incorporation assay; assay type: biochemical; conditions: for Emax: read-out: CXCR3 Efficacy (%) ± SEM; for CXCR3 pEC50 ± SEM: mean of three experiments in triplicate; for CXCR3 mediated G protein activation (result in words): [35S]GTPγS incorporation
T1 construct: expressed in transfected cells; host or cells: HEK293 / HEK293T cells, stably transfected; membrane preparations
T1 sequence (P49682 1-368): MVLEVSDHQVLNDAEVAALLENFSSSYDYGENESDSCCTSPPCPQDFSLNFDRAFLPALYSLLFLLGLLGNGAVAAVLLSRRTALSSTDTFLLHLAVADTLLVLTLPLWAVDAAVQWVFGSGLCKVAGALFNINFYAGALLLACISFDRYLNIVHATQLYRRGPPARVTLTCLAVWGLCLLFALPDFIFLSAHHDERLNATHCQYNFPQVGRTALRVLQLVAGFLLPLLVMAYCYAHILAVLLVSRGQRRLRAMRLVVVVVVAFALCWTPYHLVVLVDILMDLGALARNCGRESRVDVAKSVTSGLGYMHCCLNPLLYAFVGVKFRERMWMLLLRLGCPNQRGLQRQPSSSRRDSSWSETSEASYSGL
Method: Membrane preparation for allosteric radioligand RAMX3 displacement and [^35S]GTPγS incorporation assays: The human embryonic kidney (HEK) cells stably expressing the human CXCR3 receptor were cultured in 150-mm cell culture plates in DMEM/F-12 supplemented with 10% fetal bovine serum (FBS), 2 mM L-glutamine, 1% penicillin-streptomycin, 300 µgmL^-1 Zeocin and incubated at 37 °C in a humid atmosphere with 5% CO2. At 100% confluency cells were washed with PBS twice, treated with Tris EDTA buffer (10 mM Tris, 0.5 mM EDTA, 5 mM KCl, 140 mM NaCl, pH 7.4), and harvested using a cell scraper. Cells were pelleted at 1100×g for 8 min at 4 °C, resuspended in Tris-EDTA-MgCl2 buffer (50mM Tris, 5 mM EDTA, 1.5 mM CaCl2, 5 mM MgCl2, 5 mM KCl, 120 mM NaCl, pH 7.4) and followed by lysis with an Ultra-Turrax. After centrifugation at 50,000•g, at 4°C for 18 min the membranes were resuspended in the binding buffer (50 mM Tris, 1 mM EDTA, 5 mM MgCl2 and subsequently homogenized with a glass-Teflon homogenizer (20 strokes). The homogenized membranes were shock-frozen in liquid nitrogen and stored at -80°C. The protein concentration was determined with the Lowry method with bovine serum albumin used as a standard.^35
[^35S]GTPγS incorporation assay: The [^35S]GTPγS incorporation assay was performed on membrane preparations of stably transfected HEK293 cells that expressed the CXCR3 receptor. The assay was carried out in 96-well plates at the final volume of 200 µL. The incubation buffer contained 20 mM HEPES, 10 mM MgCl2•6H20,100 mM NaCl and 100 mg/L saponin (pH 7.4). Membranes (30 µgmL^-1 of membrane protein), various concentrations of test compound and CXCL11, and 1 µM GDP were preincubated in the absence of [^35S]GTPγS for 30 min at 37 °C. After the addition of 0.10 nM [^35S]GTPγS membranes were incubated for additional 30 min at 37 °C. Incubation was terminated by filtration through Whatman GF/B filters soaked with ice cold PBS. The filter-bound radioactivity was measured as described above. Three to four experiments per compound were performed with each concentration in triplicate.
The activation of G proteins was explored in terms of CXCR3 mediated [^35S]GTPγS incorporation. In the [^35S]GTPγS incorporation assay the membrane preparations of HEK293T cells stably expressing CXCR3 were used. The activation of G proteins was monitored as the incorporation of [^35S]GTPγS and thus increase in the incorporated radioactivity. The potency and efficacy of the novel compounds was first compared to the reference compound 46/VUF10661. […] Table 1. The ability of the 46/VUF10661 based positive allosteric modulators to activate CXCR3 as measured in the [35S]GTPγS incorporation assay.[a]

[2] = target: T2, CXCR3-PK1 (Homo sapiens, UniProt P49682); experiment: β-arrestin 2 recruitment assay (PathHunter, DiscoveRx), CXCR3-PK1 construct; assay type: cell-based
T2 construct: expressed in transfected cells; host or cells: HEK293 cells stably expressing beta-gal enzyme acceptor (PathHunter, DiscoveRx), transiently transfected
T2 sequence (P49682 1-368): T1 sequence (P49682 1-368)
Method: β-arrestin 2 recruitment assay: The measurement of β-arrestin recruitment was performed utilizing the PathHunter assay purchased from DiscoveRx (DiscoveRx, Birmingham, U.K.) according to the manufacturer's protocol. HEK293 cells stably expressing β-gal enzyme acceptor were transiently transfected with the ProLink (PK1) tagged wildtype CXCR3 receptor using the TransIT-293 transfection reagent from Mirus (purchased from MoBiTec, Goettingen, Germany). The assay was carried out in 384-well plates containing 2000 cells in 20 µL. After incubation at 37°C (5% CO2, 95% relative humidity) overnight, various concentrations of test compounds or CXCL11 (prepared in PBS, pH 7.4, containing 0.20% BSA) were added and the incubation continued for 4 h. Detection mix was then added and incubated for further 60 min at room temperature. Chemiluminescence was determined with a microplate reader Clariostar (BMG labtech, Ortenberg, Germany).
The ability of the novel ligands according to the present invention to induce CXCR3-mediated β-arrestin 2 recruitment was investigated in the assay system PathHunter (DiscoveRx), which detects the recruitment of β-amestin 2 to the activated receptor using β-galactosidase (β-gal) enzyme fragment complementation. The inventors used two different ProLink tags, ProLink1 (PK1) and ProLink2 (PK2), of which PK2 has higher affinity for the enzyme acceptor to detect weak protein-protein interactions. The CXCR3-PK2 construct is readily able to detect the differences in the propensity of CXCL11 and CXCL10 to induce β-arrestin 2 recruitment at CXCR3. […] Table 3. Ability of the 46/VUF10661 based positive allosteric modulators to activate the CXCR3 as measured in the β-arrestin 2 recruitment assay (PathHunter, DiscoveRx).[a]

[3] = % of CXCL11 mediated effect, membrane preparations of HEK293T stably expressing CXCR3
[4] = membrane preparations of HEK293T stably expressing CXCR3
[5] = HEK293-T cells, PathHunter, CXCR3-PK1, two to three experiments in triplicate

Row | SMILES | Emax [1, 3] [%] | CXCR3 pEC50 ± SEM [1, 4] | CXCR3-PK1 pEC50 ± SEM [2, 5] | CXCR3 Efficacy (%) ± SEM [1, 3] | CXCR3 mediated G protein activation (result in words) [1] | other results
1 | CC(C)(C)OC(=O)N[C@@H](CCCCNC(=O)[C@@H]1Cc2ccccc2CN1C(=O)CCCc1ccccc1)C(=O)NCC(c1ccccc1)c1ccccc1 [Compound 22, Tert-butyl ((S)-1-((2,2-diphenylethyl)amino)-1-oxo-6-((S)-2-(4-phenylbutanoyl)-1,2,3,4-tetrahydroisoquinoline-3-carboxammido)hexan-2-yl)carbamate] |  | 5.07±0.50 | No effect |  |  | Emax [1]: 29 ± 15%
2 | CC(C)(C)OC(=O)N[C@@H](CCCCNC(=O)[C@@H]1Cc2ccccc2CN1C(=O)CCC(=O)c1cccs1)C(=O)NCC(c1ccccc1)c1ccccc1 [Compound 19, Tert-butyl ((S)-1-((2,2-diphenylethyl)amino)-1-oxo-6-((S)-2-(4-oxo-4-(thiophen-2-yl)butanoyl)-1,2,3,4-tetrahydroisoquinoline-3-carboxamido)hexan-2-yl)carbamate] |  | No effect | No effect | No effect |  | 
3 | CC(C)(C)OC(=O)N[C@@H](CCCCNC(=O)[C@@H]1Cc2ccccc2CN1C(=O)CCC(=O)N1CCOCC1)C(=O)NCC(c1ccccc1)c1ccccc1 [Compound 17, Tert-butyl ((S)-1-((2,2-diphenylethyl)amino)-6-((S)-2-(4-moipholino-4--oxobutanoyl)-1,2,3,4-tetrahydroisoquinoline-3-carboxamido)-1-oxohexan-2 yl)carbamate] |  | No effect | No effect | No effect | no effect | 
4 | CN1CCN(C(=O)CCC(=O)N2Cc3ccccc3C[C@H]2C(=O)NCCCC[C@H](NC(=O)OC(C)(C)C)C(=O)NCC(c2ccccc2)c2ccccc2)CC1.O=C(O)C(F)(F)F [Compound 18, 4-(4-((S)-3-(((S)-5-((tert-butoxycarbonyl)amino)-6-((2,2-diphenylethyl)amino)-6-oxohexyl)carbamoyl)-3,4-dihydroisoquinolin-2(1H)-yl)-4-oxobutanoyl)-1-methylpiperazin-1-ium 2,2,2-trifluoroacetate] |  | No effect | No effect | No effect | no effect | 
5 | CC(C)(C)OC(=O)N[C@@H](CCCCNC(=O)[C@@H]1Cc2ccccc2CN1C(=O)CCC(=O)N1CCCCC1)C(=O)NCC(c1ccccc1)c1ccccc1 [Compound 16, Tert-butyl ((S)-1-((2,2-diphenylethyl)amino)-1-oxo-6-((S)-2-(4-oxo-4-(piperidin-1-yl)butanoyl)-1,2,3,4-tetrahydroisoquinoline-3-carboxamido)hexan-2-yl)carbamate] |  | No effect | No effect | No effect | no reactivity was observed | 
6 | CC(C)(C)OC(=O)N[C@@H](CCCCNC(=O)[C@@H]1Cc2ccccc2CN1C(=O)CCC(=O)c1ccc(F)cc1)C(=O)NCC(c1ccccc1)c1ccccc1 [Compound 13, Tert-butyl ((S)-1-((2,2-diphenylethyl)amino)-6-((S)-2-(4-(4-fluorophenyl)-4-oxobutanoyl)-1,2,3,4-tetrahydroisoquinoline-3-carboxamido)-1-oxohexan-2-yl)carbamate] | 20 ± 3 | 6.29±0.31 | No effect |  |  | β-arrestin 2 recruitment, intrinsic agonism (result in words) [2]: complete loss of intrinsic agonistic properties

Now from value to compound, other results behind:

Row | Emax [1, 3] [%] | CXCR3 pEC50 ± SEM [1, 4] | CXCR3-PK1 pEC50 ± SEM [2, 5] | CXCR3 Efficacy (%) ± SEM [1, 3] | CXCR3 mediated G protein activation (result in words) [1] | SMILES | other results
7 | 47 ± 3 | 5.88±0.10 |  |  |  | CC(C)(C)OC(=O)NCCCC[C@H](NC(=O)[C@@H]1Cc2ccccc2CN1C(=O)CCC(=O)c1ccccc1)C(=O)NCC(c1ccccc1)c1ccccc1 [Compound 44, Tert-buyl ((S)-6-((2,2-diphenylethyl)amino)-6-oxo-5-((S)-2-(4-oxo-4-phenylbutanoyl)-1,2,3,4-tetrahydroisoquinoline-3-carboxamido)hexyl)carbamate] | CXCR3-PK1 efficacy (%) at 10µM ([2]; @10µM, % of CXCL11 mediated effect, CXCR3-PK1): 70%; EC50 ([2]; HEK293-T cells, PathHunter, CXCR3-PK1, two to three experiments in triplicate, read-out: CXCR3-PK1 pEC50 ± SEM (converted)): < 10 µM
8 |  | No effect | No effect | No effect |  | CC(C)(C)OC(=O)N[C@@H](CCCCNC(=O)[C@@H]1Cc2ccccc2CN1C(=O)CCC(=O)c1ccco1)C(=O)NCC(c1ccccc1)c1ccccc1 [Compound 20, Tert-butyl ((S)-1-((2,2-diphenylethyl)amino)-6-((S)-2-(4-(furan-2-yl)-4-oxobutanoyl)-1,2,3,4-tetrahydroisoquinoline-3-carboxamido)-1-oxohexan-2-yl)carbamate] | 
9 | 109 ± 3 |  |  |  |  | NCCCC[C@H](NC(=O)[C@@H]1Cc2ccccc2CN1C(=O)CCC(=O)c1ccccc1)C(=O)NCC(c1ccccc1)c1ccccc1.O=C(O)C(F)(F)F [Compound 46, (S)-6-((2,2-diphenylethyl)amino)-6-oxo-5-((S)-2-(4-oxo-4-phenylbutanoyl)-1,2,3,4-tetrahydroisoquinoline-3-carboxamido)hexan-1-aminium 2,2,2-trifluoroacetate, reference compound] | CXCR3 pEC50 ± SEM ([1]; membrane preparations of HEK293T stably expressing CXCR3, listed as 46/VUF10661, 2,2,2-trifluoroacetate): 6.2 ± 0.1 and 6.20±0.06; EC50 ([1]; membrane preparations of HEK293T stably expressing CXCR3, read-out: EC50 / potency in [35S]GTPγS incorporation): 600 nM; Emax ([2]; % of CXCL11 mediated effect, CXCR3-PK1, read-out: CXCR3-PK1 efficacy (%) (converted)): 139%; CXCR3-PK1 pEC50 ± SEM ([2]; HEK293-T cells, PathHunter, CXCR3-PK1, two to three experiments in triplicate, listed as 46/VUF10661, 2,2,2-trifluoroacetate): 5.89 ± 0.07; higher efficacy than CXCL11 ([2]; β-arrestin 2 recruitment, relative to CXCL11): ~40%
